Data published in patent US12502374B2, “Composition for preventing, alleviating, or treating inflammatory disease containing isookanin or salt thereof as active ingredient” (BioSpectrum, Inc., priority 2020, dated 2025).

Columns and labels:
[1] = system: human skin; assay: Human skin safety, repeated insult patch test (Finn chamber); assay type: in vivo; settings: 30 healthy adults
Experimental: In order to confirm that the isookanin according to the present invention is safe for human skin, a skin safety verification test was performed. To this end, a repeated insult patch test was conducted.
Nourishing creams containing the isookanin in amounts of 0.1%, 0.5% and 1%, respectively, were prepared. Specifically, a water phase containing purified water, triethanolamine and propylene glycol was dissolved by heating to 70° C. and then emulsified by adding a solution obtained by dissolving beeswax, liquid paraffin, an oil component, an emulsifier and a preservative by heating to 70° C. After completion of emulsification, the solution was cooled to 45° C., and the isookanin was added thereto in amounts of 0.1%, 0.5% and 1% and dispersed therein, followed by cooling to 30° C. As the content of the isookanin was increased from 0.1% to 0.5% and 1%, the content of liquid paraffin was decreased from 9.91% to 9.51% and 9.01%, respectively, thereby preparing nourishing creams.
Using the nourishing creams prepared as described above, a repeated insult patch test was conducted on the upper arm areas of 30 healthy adults every other day for a total of 9 times for 24 hours per time to determine whether the isookanin irritated the skin.
The patch test was performed using a Finn chamber (Epitest Ltd., Finland). 15 μl of each of the external skin preparations was dropped into the chamber, and then the patch test was performed.
[Equation 1] Average degree of reaction=[[(reaction index×degree of reaction)/(total number of subjects×highest score (4)]×100]÷number of tests (9)
In the degree of reaction, ± represents a score of 1, + represents a score of 2, and ++ represents a score of 4. When the average degree of reaction is less than 3, the corresponding composition is determined to be safe.

[2] = system: PGE2; assay: LPS-induced PGE2 secretion in RAW 264.7 macrophages (ELISA); assay type: cell-based, mouse; settings: 1, 5 and 10 ppm, LPS 100 ng/mL, FIG. 7
Experimental: Mouse macrophages (RAW 264.7) were seeded in a 24-well microplate at a density of about 2×10^5 cells per well, and cultured in an incubator for 24 hours at 37° C. under 5% CO2. Thereafter, the cells were treated with each of 1, 5 and 10 ppm of isookanin, and then treated with LPS (100 ng/mL) and cultured, and then the cell culture medium was collected. Next, the secretion level of PGE2 was measured using an ELISA kit. As a negative control group (−), mouse macrophages not treated with isookanin and LPS were used.

[3] = system: COX-2 promoter; assay: LPS-induced COX-2 promoter luciferase reporter in RAW 264.7 macrophages; assay type: cell-based, mouse; settings: 1, 5 and 10 ppm, LPS 100 ng/mL, FIG. 4
Experimental: Mouse macrophages (RAW 264.7) were seeded in a 24-well microplate at a density of about 2×10^5 cells per well, and cultured in an incubator for 24 hours at 37° C. under 5% CO2. The RAW264.7 cells were transfected with the COX-2 promoter luciferase reporter plasmid, and then treated with 1, 5, and 10 ppm of isookanin, and then treated with LPS (100 ng/mL). After culturing, the cell culture was harvested. Subsequently, luciferase enzyme activity was measured using a microplate reader (Sunrise, Tecan, Switzerland). Mouse macrophages not treated with isookanin and LPS were used as a negative control (−).

[4] = system: HMEC-1; assay: PGE2-induced vascular endothelial cell tube formation on Matrigel; assay type: cell-based, human; settings: 10 ppm, 2 hours pretreatment; 20 μM PGE2, 24 hours; FIGS. 10 and 11
Experimental: Human vascular endothelial cells (HMEC-1) were seeded in a Matrigel-coated 24-well plate at a density of 1.2×10^5 cells per well, and each well was pretreated with 10 ppm of isookanin for 2 hours. Next, each well was treated with PGE2 at a concentration of 20 μM and incubated for 24 hours. As a negative control, 100 ng/ml of VEGF was used. After 24 hours of incubation, the degree of vascular cell tube formation was observed using a microscope, and the results were photographed with a microscope camera and analyzed with Image J, and are shown in FIGS. 10 and 11.

[5] = system: HMEC-1; assay: PGE2-induced vascular endothelial cell proliferation (MTT assay); assay type: cell-based, human; settings: 1 hour pretreatment; 20 μM PGE2, 48 hours; FIG. 8
Experimental: Human microvascular […] cells (HMEC-1, ATCC, USA) were cultured in MCDB131 medium (Thermo Fisher, USA) containing 10 ng/ml EGF, 1 μg/mL cortisol, 10 mM glutamine and 10% FBS, and then seeded in a 24-well plate at a density of 5×10^4 cells per well and cultured in an incubator for 24 hours at cultured at 37° C. under 5% CO2. After culturing, each well was pretreated with each concentration of isookanin for 1 hour, and then treated with 20 μM PGE2 and cultured again for 48 hours. After 48 hours of culturing, the degree of vascular cell proliferation was measured using MTT assay, and the results are shown in FIG. 8.

[6] = system: PGE2; assay: UV-induced PGE2 secretion in human epidermal keratinocytes (ELISA); assay type: cell-based; settings: 1, 5 and 10 ppm, UVB 20 mJ/cm^2, FIG. 6
Experimental: Human epidermal keratinocytes (HEKs) were seeded in a 24-well microplate at a density of about 2×10^5 cells per well, and cultured in an incubator for 24 hours at 37° C. under 5% CO2. Thereafter, the cells were treated with each of 1, 5, and 10 ppm of isookanin, and then irradiated with UV light (UVB 20 mJ/cm^2), and then the cell culture medium was collected. Next, the secretion level of PGE2 was measured using an ELISA kit. As a negative control (−), human keratinocytes not treated with isookanin and UV light (UVB) were used.

With O=C1C[C@@H](c2ccc(O)c(O)c2)Oc2c1ccc(O)c2O [isookanin] the “Average degree of reaction” value ([1]; upper arm, 24 hours per patch, Equation 1, less than 3 is determined to be safe) was ≤ 3, the “skin safety conclusion of the repeated insult patch test” value ([1]; nourishing creams with 0.1%, 0.5% and 1% isookanin) was “safe substance that shows no remarkable cumulative irritation aspect” and the “inhibition of LPS-induced PGE2 expression” value [2] was “inhibiting the LPS-induced expression of PGE2 in a concentration-dependent manner”. For the same molecule, the “inhibition of LPS-induced activation of COX-2 promoter” value [3] was “inhibiting the LPS-induced activation of COX-2 promoter in a concentration-dependent manner”, the “inhibition of human vascular endothelial cell tube formation induced by PGE2” value [4] was “effectively inhibiting human vascular endothelial cell tube formation induced by PGE2” and the “inhibition of human vascular endothelial cell proliferation induced by PGE2” value [5] was “effectively inhibiting human vascular endothelial cell proliferation induced by PGE2”. The “inhibition of UV-induced PGE2 expression” value [6] was “inhibiting the expression of PGE2 in a concentration-dependent manner”.
